According to PMC5354814, “In silico and in vitro drug screening identifies new therapeutic approaches for Ewing sarcoma” (Oncotarget, 2016):

Tests used:
A673 = assay: Hits validation, dose-response cell proliferation (CellTiter-Glo); format: cell-based; conditions: Homo sapiens, A673; 12-point dose-response 50 μmol/L to 1 nmol/L, mean ± SD
Method: (§1) For hits validation and combination study, cells were harvested and aliquoted into 384-well plates at concentrations of 750–1,500 cells per well in a total of 20 μl/well using a Matrix Wellmate (Thermo Scientific). Five μl of culture media containing either vehicles or drug were added to each well the next day (drug concentrations range from 1 nmol/L to 50 μmol/L). For combination study, selected drugs were archived in robotically accessible plates, to which media was added in preparation for addition to master plates by a Nimbus 96 liquid-dispensing workstation (Hamilton). Liquid transfers to dilution and assay plates were handled using the same workstation. Each 384-well master plate contained four 9 by 9 dose-matrix blocks, with eight serial two-fold dilutions (concentrations range from 7.8 nmol/L to 1 μmol/L). Additional wells were reserved for untreated, and vehicle-treated control wells. Cell proliferation was evaluated using Cell-Titer Glo® reagents (Promega). IC50 values were determined for each drug using SigmaPlot (Systat Software). The combination index values were calculated using SigmaPlot (Systat Software) and CompuSyn.

CHLA-258 = assay: as above; format: cell-based; conditions: 12-point dose-response 50 μmol/L to 1 nmol/L, mean ± SD
Method: as §1

COG-E-352 = assay: as above; format: cell-based; conditions: 12-point dose-response 50 μmol/L to 1 nmol/L, mean ± SD
Method: as §1

Hs 822.T. = assay: as above; format: cell-based; conditions: control cell line, 12-point dose-response, mean ± SD
Method: as §1

Hs 863.T. = assay: as above; format: cell-based; conditions: control cell line, 12-point dose-response, mean ± SD
Method: as §1

RD-ES = assay: as above; format: cell-based; conditions: RD-ES; 12-point dose-response 50 μmol/L to 1 nmol/L, mean ± SD
Method: as §1

SK-ES-1 = assay: as above; format: cell-based; conditions: Homo sapiens, SK-ES1; 12-point dose-response 50 μmol/L to 1 nmol/L, mean ± SD
Method: as §1

TC-71 = assay: as above; format: cell-based; conditions: TC-71; 12-point dose-response 50 μmol/L to 1 nmol/L, mean ± SD
Method: as §1

Hs 919.T. = assay: as above; format: cell-based; conditions: control cell line, 12-point dose-response, mean ± SD
Method: These drugs were chosen based on their known mechanisms and safety profiles. We also tested the synergy between these drug hits (Supplementary Figures S6–S11). […] We evaluated the anti-proliferation effect in combination treatments using the EWS and control cell lines.
as §1

EWS cell lines = assay: Combination study (dose matrix, CellTiter-Glo, combination index); format: cell-based
Method: Next, the predicted and library screened drugs were extensively validated. The in vitro activities of each drug hit were evaluated in an expanded panel of EWS cell lines (either the EWS/FLI1 or the EWS/ERG fusion) (Table 1) and confirmed employing 12-point dose-response curves ranging from 50 μmol/L to 1 nmol/L, with triplicate sampling (Table 3). As mentioned above, one of the most notable drug hits discovered through both the in silico and in vitro drug screening approaches was auranofin. Based on this finding, we subsequently screened auranofin against six other marketed or investigational anticancer drug hits (carfilzomib, elesclomol, bortezomib, geldanamycin, AUY922, and ganetespib, Supplementary Figures S1–S5 and Figure 2). These drugs were chosen based on their known mechanisms and safety profiles. […] We evaluated the anti-proliferation effect in combination treatments using the EWS and control cell lines. […]
For hits validation and combination study, cells were harvested and aliquoted into 384-well plates at concentrations of 750–1,500 cells per well in a total of 20 μl/well using a Matrix Wellmate (Thermo Scientific). […] Cell proliferation was evaluated using Cell-Titer Glo® reagents (Promega). IC50 values were determined for each drug using SigmaPlot (Systat Software). The combination index values were calculated using SigmaPlot (Systat Software) and CompuSyn.

[1] = tested on: cancer cells with EWS-FLI1 mutations; parameters: method as in GDSC database, cancerrxgene.org; conditions: ref GDSC database, cancerrxgene.org; cited from earlier work
A673 cells = assay: In vivo xenograft mouse model; conditions: auranofin 12 mg/kg i.p. 5 days per week, ganetespib 150 mg/kg i.v. once weekly; p < 0.05
Method: To assess the antitumor activity of auranofin (using an alternative delivery approach), ganetespib and the combination treatments in vivo, we generated a xenograft nude mouse model by injecting A673 cells intramuscularly proximal to the tibia. Based on the dose tolerance and pharmacokinetic studies described above, we administered auranofin at a tolerable daily i.p. dose that achieved adequate systemic drug exposure. Auranofin was administered with a dose of 12 mg/kg through an i.p. injection once a day for 5 days per week, and ganetespib was administered with a dose of 150 mg/kg through an i.v. injection once weekly. Mice that grew palpable tumors were randomized into four groups: vehicle, auranofin-only, ganetespib-only, and the combination.
The guidelines adopted by the Institutional Animal Care and Use Committee of the University of Kansas Medical Center (KUMC-IACUC) were followed in all performed procedures. All experimental protocols were approved by KUMC-IACUC. Homozygous athymic nude (Foxn1nu/Foxn1nu) female mice at the age of 4-weeks were purchased from Jackson Laboratories. After one week, one million A673 cells in PBS (pH = 7.3) were injected into mice. The cells were injected intramuscularly proximal to the tibia and treatment started after 15 days of inoculation. Mice developing palpable tumors were divided into 4 arms and treated for up to 18 days: vehicle (20% Cremophor RH40 and 80% D5W iv and 0.5% HPMC K4M ip), auranofin (12 mg/kg i.p. injection 5 days per week), ganetespib (150 mg/kg i.v. injection once weekly), as well as auranofin and ganetespib combined. Mice were evaluated for overall health and weighed every week. When tumor size impeded mobility, mice were sacrificed and necropsies were performed. Tumors were then dissected, measured and processed for analysis. The liver, kidneys, and spleen were also snap frozen in liquid nitrogen or fixed in 10% neutral buffered formalin and paraffin embedded for toxicity studies. Tissues were then subjected to hematoxylin and eosin (H&E) staining and immunohistochemical staining. […]

[2] = 24-month study in rats; auranofin 1.0 or 2.5 mg/kg/day orally; gold sodium thiomalate 2 or 6 mg/kg twice weekly; cited from earlier work

| Structure (SMILES) | IC50 (SK-ES-1) [µM] | IC50 (A673) [µM] | IC50 (CHLA-258) [µM] | IC50 (COG-E-352) [µM] | IC50 (Hs 822.T.) [µM] | IC50 (Hs 863.T.) [µM] | IC50 (RD-ES) [µM] | IC50 (TC-71) [µM] | IC50 (Hs 919.T.) [µM] | synergy in combination with auranofin (EWS cell lines) | sensitivity of cancer cells with EWS-FLI1 mutations compared with wild-type [1] | survival rate versus control group (A673 cells) | frequency of renal tubular cell karyomegaly and cytomegaly and renal adenoma [2] |
| --- | --- | --- | --- | --- | --- | --- | --- | --- | --- | --- | --- | --- | --- |
| CCNC(=O)c1noc(-c2cc(C(C)C)c(O)cc2O)c1-c1ccc(CN2CCOCC2)cc1 [AUY922] | 0.03 ± 0.002 | 0.02 ± 0.002 | < 0.003 | < 0.003 | > 20 | > 20 | 0.009 ± 0.001 | < 0.003 | > 20 | highly synergistic | – | – | – |
| CN(NC(=O)CC(=O)NN(C)C(=S)c1ccccc1)C(=S)c1ccccc1 [Elesclomol] | 0.01 ± 0.001 | 0.006 ± 0.006 | < 0.003 | 0.007 ± 0.002 | > 20 | > 20 | 0.05 ± 0.06 | < 0.003 | > 20 | – | preferentially sensitive | – | – |
| C[n+]1cc2c3c(ccc2c2ccc4cc5c(cc4c21)OCO5)OCO3 [Sanguinarine] | 1.87 ± 0.51 | 0.75 ± 0.14 | 0.95 ± 0.31 | 1.05 ± 0.18 | 1.55 ± 0.26 | 1.25 ± 0.14 | 1.5 ± 0.12 | 0.2 ± 0.08 | 1.44 ± 0.32 | – | – | – | – |
| CC(C)c1cc(-c2n[nH]c(=O)n2-c2ccc3c(ccn3C)c2)c(O)cc1O [ganetespib] | 0.01 ± 0.001 | 0.04 ± 0.01 | < 0.003 | < 0.003 | > 20 | > 20 | 0.02 ± 0.02 | < 0.003 | > 20 | highly synergistic | – | significantly increased the survival rate | – |
| O=C([O-])CC([S-])C(=O)[O-].[Au+].[Na+].[Na+] (centres unmarked) [gold sodium thiomalate] | – | – | – | – | – | – | – | – | – | – | – | – | significant incr ease |

Continued, in another order:

| IC50 (SK-ES-1) [µM] | Structure (SMILES) | IC50 (A673) [µM] | IC50 (CHLA-258) [µM] | IC50 (COG-E-352) [µM] | IC50 (Hs 822.T.) [µM] | IC50 (Hs 863.T.) [µM] | IC50 (RD-ES) [µM] | IC50 (TC-71) [µM] | IC50 (Hs 919.T.) [µM] | synergy in combination with auranofin (EWS cell lines) | sensitivity of cancer cells with EWS-FLI1 mutations compared with wild-type [1] | survival rate versus control group (A673 cells) | frequency of renal tubular cell karyomegaly and cytomegaly and renal adenoma [2] |
| --- | --- | --- | --- | --- | --- | --- | --- | --- | --- | --- | --- | --- | --- |
| 3.86 ± 0.89 | CCC(C)(C)C(=O)O[C@H]1C[C@@H](C)C=C2C=C[C@H](C)[C@H](CC[C@@H]3C[C@@H](O)CC(=O)O3)[C@H]21 [Simvastatin] | 0.58 ± 0.05 | 0.25 ± 0.13 | 10.5 ± 1.7 | 2.08 ± 0.84 | 4.1 ± 0.56 | 3.25 ± 0.14 | 4.33 ± 3.86 | 2.88 ± 0.58 | – | – | – | – |
| > 50 | CC1=C(/C=C/C(C)=C/C=C/C(C)=C/C(=O)O)C(C)(C)CCC1 [Tretinoin] | > 50 | 4.95 ± 3.82 | 35.5 ± 6.28 | > 50 | > 50 | > 50 | > 50 | > 50 | – | – | – | – |
| 16.7 ± 3.14 | CN1CCN(CCCN2c3ccccc3Sc3ccc(C(F)(F)F)cc32)CC1 [Trifluoperazine] | 15.6 ± 3.55 | 13.6 ± 4.8 | 12.1 ± 1.58 | 10.6 ± 2.45 | 9.84 ± 2.28 | 18.2 ± 2.54 | 16.4 ± 3.46 | 16.8 ± 4.2 | – | – | – | – |
| < 0.003 | CC[C@]1(O)C[C@@H]2CN(CCc3c([nH]c4ccccc34)[C@@](C(=O)OC)(c3cc4c(cc3OC)N(C)[C@H]3[C@@](O)(C(N)=O)[C@H](O)[C@]5(CC)C=CCN6CC[C@]43[C@@H]65)C2)C1 [Vindesine] | < 0.003 | < 0.003 | < 0.003 | 0.25 ± 0.01 | 0.28 ± 0.01 | < 0.003 | < 0.003 | 4.58 ± 0.45 | – | – | – | – |
